Holding throughout (type): in vivo
Assay [1] relates to Echinochloa crus-galli (ECHCG). Description: Pre-emergence herbicide test, glasshouse, percentage damage. The settings on record: rate 1000 g/ha, evaluated after 13 days. The gist of the method: (§1)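 Compounds are applied as aqueous sprays at 500 g/ha, unless otherwise stated, either one day after sowing or to 8-day-old plants. Injury is assessed after 13 days and expressed on a 1-5 scale, where 5 means 81-100% damage.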

In assay [2] the test system is Ipomoea hederacea (IPOHE). The description is as above. The settings on record: rate 1000 g/ha, evaluated after 13 days. In a few lines: as §1
Assay [3] relates to Solanum nigrum (SOLNI). The description is as above. The settings on record: rate 1000 g/ha, evaluated after 13 days. In a few lines:
as §1

Assay [4] relates to Lolium perenne (LOLPE). The description is as above. The settings on record: rate 1000 g/ha, evaluated after 13 days. The gist of the method: as §1
The subject of assay [5] is Amaranthus retoflexus (AMARE). The assay is described as above. The settings on record: rate 1000 g/ha, evaluated after 13 days. In a few lines:
as §1

The test system of assay [6] is Setaria faberi (SETFA). Described as above. The settings on record: rate 1000 g/ha, evaluated after 13 days. The gist of the method: as §1
The subject of assay [7] is Echinochloa crus-galli (ECHCG). Kind of assay: Post-emergence herbicide test, glasshouse, percentage damage. The settings on record: 1000 g/ha, evaluated after 13 days. In a few lines:
as §1

Assay [8] relates to Ipomoea hederacea (IPOHE). Described as above. The settings on record: 1000 g/ha, evaluated after 13 days. In a few lines: as §1
Assay [9] has as its system Solanum nigrum (SOLNI). The description is as above. The settings on record: 1000 g/ha, evaluated after 13 days. In a few lines: as §1
Assay [10] has as its system Lolium perenne (LOLPE). The assay is described as above. The settings on record: 1000 g/ha, evaluated after 13 days. The gist of the method:
as §1

Assay [11] deals with Amaranthus retoflexus (AMARE). The description is as above. The settings on record: 1000 g/ha, evaluated after 13 days. The gist of the method:
as §1

Assay [12] relates to Setaria faberi (SETFA). The assay is described as above. The settings on record: 1000 g/ha, evaluated after 13 days. The gist of the method:
as §1

In the case of `N#Cc1cccc(Oc2ncc(F)cc2F)c1-c1cc(C(F)F)no1` [Compound A160], the “Pre-emergence Test ECHCG percentage damage (five point scale)” value in assay [1] is reported as 5 (5=81-100%). Further, in assay [2], the “Pre-emergence Test IPOHE percentage damage (five point scale)” value is 5 (5=81-100%). The “Pre-emergence Test SOLNI percentage damage (five point scale)” value in the assay with Solanum nigrum (SOLNI) [3] is 4 (4=61-80%). In addition, in the assay on Lolium perenne (LOLPE) [4], the “Pre-emergence Test LOLPE percentage damage (five point scale)” value is 5 (5=81-100%). In addition, the “Pre-emergence Test AMARE percentage damage (five point scale)” value in assay [5] is listed as 5 (5=81-100%). For the same compound, the “Pre-emergence Test SETFA percentage damage (five point scale)” value with Setaria faberi (SETFA) [6] is 5 (5=81-100%). Moreover, the “percentage damage caused to the plant, ECHCG” value in [7] is on record as 5 (5=81-100%). Moreover, in [8], the “percentage damage caused to the plant, IPOHE” value is listed as 5 (5=81-100%). Further, the “percentage damage caused to the plant, SOLNI” value in the assay with Solanum nigrum (SOLNI) [9] is 5 (5=81-100%). Besides, the “percentage damage caused to the plant, LOLPE” value with Lolium perenne (LOLPE) [10] is reported as 5 (5=81-100%). Further, the “percentage damage caused to the plant, AMARE” value in assay [11] is recorded as 5 (5=81-100%). Moreover, the “percentage damage caused to the plant, SETFA” value with Setaria faberi (SETFA) [12] is 5 (5=81-100%).

With `N#Cc1cccc(Oc2ccc(Cl)cn2)c1-c1cc(C(F)F)no1` [Compound A161], the “Pre-emergence Test ECHCG percentage damage (five point scale)” value in assay [1] is recorded as 5 (5=81-100%). Moreover, in assay [2], the “Pre-emergence Test IPOHE percentage damage (five point scale)” value is listed as 5 (5=81-100%). In addition, the “Pre-emergence Test SOLNI percentage damage (five point scale)” value in the assay on Solanum nigrum (SOLNI) [3] is listed as 4 (4=61-80%). Moreover, the “Pre-emergence Test LOLPE percentage damage (five point scale)” value with Lolium perenne (LOLPE) [4] is listed as 5 (5=81-100%). The “Pre-emergence Test AMARE percentage damage (five point scale)” value in [5] is 5 (5=81-100%). The “Pre-emergence Test SETFA percentage damage (five point scale)” value with Setaria faberi (SETFA) [6] is listed as 5 (5=81-100%). Moreover, in assay [7], the “percentage damage caused to the plant, ECHCG” value was 5 (5=81-100%). Also, in assay [8], the “percentage damage caused to the plant, IPOHE” value is listed as 5 (5=81-100%). In addition, the “percentage damage caused to the plant, SOLNI” value in the assay with Solanum nigrum (SOLNI) [9] was 5 (5=81-100%). Further, the “percentage damage caused to the plant, LOLPE” value with Lolium perenne (LOLPE) [10] is recorded as 5 (5=81-100%). The “percentage damage caused to the plant, AMARE” value in assay [11] is recorded as 5 (5=81-100%). Moreover, the “percentage damage caused to the plant, SETFA” value in the assay with Setaria faberi (SETFA) [12] is listed as 5 (5=81-100%).

With `N#Cc1cccc(Oc2ncc(Cl)cc2F)c1-c1cc(C(F)F)no1` [Compound A162], in assay [1], the “Pre-emergence Test ECHCG percentage damage (five point scale)” value is 5 (5=81-100%). The “Pre-emergence Test IPOHE percentage damage (five point scale)” value in assay [2] is 5 (5=81-100%). Further, the “Pre-emergence Test SOLNI percentage damage (five point scale)” value with Solanum nigrum (SOLNI) [3] is on record as 4 (4=61-80%). Further, in the assay with Lolium perenne (LOLPE) [4], the “Pre-emergence Test LOLPE percentage damage (five point scale)” value is listed as 5 (5=81-100%). Further, the “Pre-emergence Test AMARE percentage damage (five point scale)” value in [5] was 5 (5=81-100%). In the assay with Setaria faberi (SETFA) [6], the “Pre-emergence Test SETFA percentage damage (five point scale)” value was 5 (5=81-100%). In assay [7], the “percentage damage caused to the plant, ECHCG” value is reported as 4 (4=61-80%). The “percentage damage caused to the plant, IPOHE” value in assay [8] is 5 (5=81-100%). The “percentage damage caused to the plant, SOLNI” value with Solanum nigrum (SOLNI) [9] is on record as 5 (5=81-100%). Moreover, in the assay on Lolium perenne (LOLPE) [10], the “percentage damage caused to the plant, LOLPE” value is on record as 5 (5=81-100%). For the same compound, the “percentage damage caused to the plant, AMARE” value in assay [11] was 5 (5=81-100%). Besides, the “percentage damage caused to the plant, SETFA” value in the assay with Setaria faberi (SETFA) [12] was 5 (5=81-100%).

For the origin of these results see patent US12227495B2, “Herbicidal compounds” (SYNGENTA CROP PROTECTION AG, priority 2018, dated 2025).
